Data reported in PubChem BioAssay AID2060357 (Molecular Pharmacology Branch, DTP, NCI, 2025).
pIC50: −log10 of the molar value. Where “and” joins values, the source holds several entries; their conditions need not be identical. Equal entries are not always repeated.

System: 292921-168-R-J2-PDC spheroids with HUVEC/MSC, viability
Experiment: Anticancer human tumor 292921-168-R-J2-PDC patient-derived pancreatic carcinoma cell line growth inhibition [TAK]
Conditions: for viability, T/C: stronger effect = lower value
Text: Combinatorial screen of targeted agents with TAK-243 and ipatasertib in multi-cell type tumor spheroids
A high-throughput screen of multi-cell type tumor spheroids was designed to identify active combinations of targeted small molecules and TAK-243 or ipatasertib. Complex spheroids include a stromal component modeled by human endothelial cells (HUVEC) and fibroblasts modeled by human mesenchymal stem cells (MSCs). The concentration ranges selected for each drug and investigational agent were based upon clinically achievable concentrations if the clinical Cmax of the agent was known.
Compounds. The drugs and investigational agents: TAK-243 (785004), ipatasertib (767898), everolimus (733504), selumetinib (741078), bortezomib (756655), trametinib (758246), ixazomib (758254), vemurafenib (761431), dabrafenib (764134), sapanisertib (764658), alpelisib (765974), and copanlisib (816437), were obtained from the National Cancer Institute (NCI) Developmental Therapeutics Program Chemical Repository. The FDA-approved anticancer drug set is available from the NCI Developmental Therapeutics Program. […] The stock solutions were prepared in dimethyl sulfoxide (DMSO, Sigma-Aldrich, St. Louis, MO, cat. D2650) at 800-fold the tested concentration and stored at -70 degrees C prior to their use. All drugs and investigational agents were tested over a range starting from a high concentration at or near the clinical Cmax and decreasing in half-log increments. If the clinical Cmax for an agent had not been determined, the highest concentration tested was 10 microM.
NCI60 Cell Culture. NCI60 cell lines were obtained from the NCI Developmental Therapeutics Program Tumor Repository. For each lot of cells, the Repository performed Applied Biosystems AmpFLSTR Identifiler testing with PCR amplification to confirm consistency with the published Identifier STR profile for each cell line. Cells were kept in continuous culture for no more than 20 passages. The optimal seeding densities for each of the cell lines at each time point assessed were determined prior to performing the concentration response studies. Briefly, the NCI60 human tumor lines were grown as monolayers in RPMI 1640 medium supplemented with 10% FBS and 2 mmol/L L-glutamine.
An additional 2 lines were from the NCI60 cell line panel including melanomas, MALME-3M and SK-MEL-2. Pooled donor human umbilical vein endothelial cells (HUVEC, Lonza, cat. CC-2519) and human mesenchymal stem cells (hMSC, Lonza, cat. PT-2501) were purchased from Lonza (Walkersville, MD).
PDMR cell lines were grown in complete medium (DC medium): Dulbecco's modified Eagle's medium (DMEM)/F12 supplemented with 5% fetal bovine serum (FBS), 2 mM L-glutamine, 100 U/mL penicillin and 100 µg/ml streptomycin, 0.4 µg/ml hydrocortisone, 10 ng/ml epidermal growth factor (EGF) recombinant human protein, 24 µg/mL adenine, and 0.1 mg/mL primocin. During culture from frozen stock vials, PDMR cells were cultured in the same medium containing 10 µM Y-27632 (see Table 3). The PDCs were cultured in complete DMEM/F12 media without 10 microM Y-27632 dihydrochloride for at least two passages prior to the screen. The pooled donor HUVEC and hMSC were cultured in endothelial cell growth medium 2 (PromoCell, Heidelberg, Germany, cat. C-22011) and mesenchymal stem cell growth medium 2 (PromoCell, cat. C-28009), respectively. For all experiments, HUVEC and hMSC were used at passages </=5.
For the pre-screen, cell seeding densities were determined from a titration spanning the range from 5,000 to 313 cells per well. The mct-spheroids including 60% malignant cells, 25% HUVEC and 15% MSC dispensed as a mixture into U-bottom Ultra-Low Attachment 384-well plates (Corning, NY)
High-throughput Drug Combination Screening.
Prior to their inoculation into 384-well plates, malignant cells, HUVEC, and hMSC were removed from T flasks using TrypLE express (Thermo Fisher Scientific, cat. 12605036) and harvested by centrifugation for 5 min at 233 x g. […]
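Note: spheroids exposed to drugs for seven days before readout.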

`CC(C)CC(NC(=O)CNC(=O)c1cc(Cl)ccc1Cl)B1OC(=O)CC(CC(=O)O)(C(=O)O)O1` (stereo not given) + CC(C)NCC(C(=O)N1CCN(c2ncnc3c2C(C)CC3O)CC1)c1ccc(Cl)cc1 was tested, and the pIC50 (curve of first compound, second compound 0.3 µM) was 7.56, the pIC50 (curve of first compound, second compound 0.949 µM) was 7.62 and the pIC50 (curve of first compound, second compound 3 µM) was 7.63. The pIC50 (curve of first compound, second compound 9.49 µM) was 7.75, the pIC50 (curve of first compound, second compound 30 µM) was over 9.50 and the viability, T/C (second compound 0.3 µM, first compound 0.000316 µM) was 91.7%. It also gave a viability, T/C (second compound 0.3 µM, first compound 0.001 µM) of 86.2%, a viability, T/C (second compound 0.3 µM, first compound 0.00316 µM) of 88.8% and a viability, T/C (second compound 0.3 µM, first compound 0.01 µM) of 86.2%. The viability, T/C (second compound 0.3 µM, first compound 0.0316 µM) was 45.2%, the viability, T/C (second compound 0.3 µM, first compound 0.1 µM) was 10.8% and the viability, T/C (second compound 0.949 µM, first compound 0.000316 µM) was 84.6%. It also gave a viability, T/C (second compound 0.949 µM, first compound 0.001 µM) of 85.8%, a viability, T/C (second compound 0.949 µM, first compound 0.00316 µM) of 85.2% and a viability, T/C (second compound 0.949 µM, first compound 0.01 µM) of 85.5%. It also gave a viability, T/C (second compound 0.949 µM, first compound 0.0316 µM) of 38.8%, a viability, T/C (second compound 0.949 µM, first compound 0.1 µM) of 11% and a viability, T/C (second compound 3 µM, first compound 0.000316 µM) of 75.8%. It also gave a viability, T/C (second compound 3 µM, first compound 0.001 µM) of 80.2%, a viability, T/C (second compound 3 µM, first compound 0.00316 µM) of 73.3% and a viability, T/C (second compound 3 µM, first compound 0.01 µM) of 80.2%. For the same compound, the viability, T/C (second compound 3 µM, first compound 0.0316 µM) was 40.9%, the viability, T/C (second compound 3 µM, first compound 0.1 µM) was 9.38% and the viability, T/C (second compound 9.49 µM, first compound 0.000316 µM) was 62%. It also gave a viability, T/C (second compound 9.49 µM, first compound 0.001 µM) of 60.3%, a viability, T/C (second compound 9.49 µM, first compound 0.00316 µM) of 60.4% and a viability, T/C (second compound 9.49 µM, first compound 0.01 µM) of 68.2%. The viability, T/C (second compound 9.49 µM, first compound 0.0316 µM) was 37.6%, the viability, T/C (second compound 9.49 µM, first compound 0.1 µM) was 6.83% and the viability, T/C (second compound 30 µM, first compound 0.000316 µM) was 41.4%. The viability, T/C (second compound 30 µM, first compound 0.001 µM) was 41.2%, the viability, T/C (second compound 30 µM, first compound 0.00316 µM) was 42.4% and the viability, T/C (second compound 30 µM, first compound 0.01 µM) was 44.2%. For the same compound, the viability, T/C (second compound 30 µM, first compound 0.0316 µM) was 31.8% and the viability, T/C (second compound 30 µM, first compound 0.1 µM) was 7.05%.
In the case of `CC(C)CC(NC(=O)CNC(=O)c1cc(Cl)ccc1Cl)B1OC(=O)CC(CC(=O)O)(C(=O)O)O1` (stereo not given), the viability, T/C (compound 0.000316 µM) was 99.7% and 104%, the viability, T/C (compound 0.001 µM) was 107% and 92.5% and the viability, T/C (compound 0.00316 µM) was 105% and 99.2%. For the same compound, the viability, T/C (compound 0.01 µM) was 107% and 102%, the viability, T/C (compound 0.0316 µM) was 37.5% and 35.4% and the viability, T/C (compound 0.1 µM) was 11.4% and 6.93%. For the same compound, the pIC50 (curve of compound) was 7.59 and 7.61.
`CC(C)CC(NC(=O)C(Cc1ccccc1)NC(=O)c1cnccn1)B(O)O` (stereo not given) was tested, and the viability, T/C (compound 31.6 pM) was 99.4% and 103%, the viability, T/C (compound 0.0001 µM) was 102% and the viability, T/C (compound 0.000316 µM) was 104% and 107%. The viability, T/C (compound 0.001 µM) was 96.7% and 104%, the viability, T/C (compound 0.00316 µM) was 88.3% and 74.9% and the viability, T/C (compound 0.01 µM) was 7.89% and 7.64%. The pIC50 (curve of compound) was 8.26 and 8.31.
For `CC(C)n1nc(-c2ccc3oc(N)nc3c2)c2c(N)ncnc21`, the viability, T/C (compound 0.000316 µM) was 101% and 103%, the viability, T/C (compound 0.001 µM) was 87.1% and 91% and the viability, T/C (compound 0.00316 µM) was 75.5% and 74.6%. For the same compound, the viability, T/C (compound 0.01 µM) was 61.5% and 58.3%, the viability, T/C (compound 0.0316 µM) was 40.3% and 43% and the viability, T/C (compound 0.1 µM) was 31.9% and 32.7%. The pIC50 (curve of compound) was 7.71 and 7.73.
With `Cc1nc(NC(=O)N2CCCC2C(N)=O)sc1-c1ccnc(C(C)(C)C(F)(F)F)c1` (stereo not given) the viability, T/C (compound 0.0316 µM) was 97.9% and 99.8%, the viability, T/C (compound 0.1 µM) was 78.4% and 71.1% and the viability, T/C (compound 0.316 µM) was 61.5% and 55.7%. For the same compound, the viability, T/C (compound 1 µM) was 44.4% and 38.9%, the viability, T/C (compound 3.16 µM) was 30.1% and 28.9% and the viability, T/C (compound 10 µM) was 20.4% and 22.4%. The pIC50 (curve of compound) was 6.17 and 6.37.
`COc1c(OCCCN2CCOCC2)ccc2c3n(c(=NC(=O)c4cnc(N)nc4)nc12)CCN3` was tested, and the viability, T/C (compound 0.00316 µM) was 74.5% and 83.2%, the viability, T/C (compound 0.01 µM) was 43.7% and 51.3% and the viability, T/C (compound 0.0316 µM) was 28.2% and 30.1%. The viability, T/C (compound 0.1 µM) was 14.5% and 16.6%, the viability, T/C (compound 0.316 µM) was 10.4% and 12.4% and the viability, T/C (compound 1 µM) was 8.83% and 11.2%. For the same compound, the pIC50 (curve of compound) was 8.09 and 7.96.
